Laboratory results taken from patent publication US12139473B2, “Substituted-N-heteroaryl compounds and uses thereof” (Bionomics Limited, priority 2019, dated 2024).

Target: T1, hKv3.1 (Homo sapiens, UniProt P48547)
T1 construct: expressed in transfected cells
T1 sequence (P48547 1-511): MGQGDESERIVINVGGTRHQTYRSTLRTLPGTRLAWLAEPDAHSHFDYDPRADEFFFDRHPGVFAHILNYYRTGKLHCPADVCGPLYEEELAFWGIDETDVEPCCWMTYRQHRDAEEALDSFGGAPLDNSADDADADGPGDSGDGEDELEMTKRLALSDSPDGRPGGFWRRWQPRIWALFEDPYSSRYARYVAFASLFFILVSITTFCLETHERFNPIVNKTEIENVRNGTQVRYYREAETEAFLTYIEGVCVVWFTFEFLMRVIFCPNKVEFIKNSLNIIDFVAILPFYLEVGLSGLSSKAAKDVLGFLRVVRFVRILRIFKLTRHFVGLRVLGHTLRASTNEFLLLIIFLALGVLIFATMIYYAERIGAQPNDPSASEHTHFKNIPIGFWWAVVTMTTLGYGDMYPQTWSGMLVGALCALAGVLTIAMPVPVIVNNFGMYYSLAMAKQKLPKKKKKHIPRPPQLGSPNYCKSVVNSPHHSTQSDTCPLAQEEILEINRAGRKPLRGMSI
Assay: Automated patch clamp electrophysiology (Patchliner), CHO/Kv3.1 cells
Type: cell-based
Conditions: 10 μM compound, hKv3.1 in CHO-K1, whole-cell; for Kv3.1 Activity at 10 μM Potentiation (%): peak current at voltage step of −10 mV vs vehicle (0.33% DMSO); for Kv3.1 Activity at 10 μM Voltage Shift (mV): voltage shift of the IV curve at V1/2
Experimental: hKv3.1, hKv3.2, hKv3.3, and hKv3.4 were stably expressed in CHO-K1 (Chinese hamster ovary) cells and kept under constant antibiotic selection. For in vitro assays, cells were maintained in appropriate growth medium at 37° C. and 5% CO2 in a humidified incubator.
hKv3.X expressing cells were plated in T-25 flasks for 3-4 days at 37° C. (no selection antibiotic) prior to use and grown to 80% confluence. Cells were washed twice with PBS (calcium and magnesium free) and detached with a 5-minute treatment at 37° C. with 2-3 mls of Accutase®. Cells were collected, and flask was washed in CHO-SFM II media (Life Technologies Gibco), centrifuged for 2 minutes at ˜110×g and resuspended to obtain a single cell suspension of ˜2-3×10^6 cells/ml.
The intracellular solution contained the following (in mM): KCl 50, NaCl 10, KF 60, EGTA 20, HEPES 10, adjusted to pH 7.2 with KOH and an osmolarity of 285 mOsmol. Seal enhancer was purchased from Nanion (80 mM NaCl, 3 mM KCl, 10 mM MgCl2, 35 mM CaCl2), 10 mM HEPES, pH7.4, 298 mOsmol. The external solution contained (in mM): NaCl 140, KCl 4, CaCl2) 2, MgCl2 1, HEPES 10, Glucose 5, adjusted to pH7.4 and an osmolarity of 298 mOsmol.
All compounds were initially tested at 10 uM at a final DMSO concentration of 0.33%. Compounds were dissolved in dimethylsulfoxide (DMSO) at a stock concentration of 30 mM. The compound was further diluted 1:10 to give a stock concentration of 3 mM in DMSO. The final assay solution was diluted 1:300 in External solution to give a final concentration of 10 uM. For the DMSO Control Buffer 30 uL of DMSO was added to 10 mL buffer.
All electrophysiological recordings were performed at ambient temperature (21-23° C.) using automated patch clamp (Patchliner, Nanion Technologies GmbH) in the whole-cell configuration.
Cell membrane potentials were held at −80 mV, and currents were evoked by voltage steps (1000 ms duration) from −60 to +60 mV in 10 mV increments. This was performed first with vehicle (0.33% DMSO) and then with 10 uM compound, after a 3-minute incubation period. Data was taken from 4 cells per assay.
The recordings were analysed and selected using peak current amplitude (>100 pA at the −10 mV voltage step) in the absence of compound to eliminate unsuitable cells from analysis. Peak current amplitude was measured and recorded for each voltage step and data was normalised to the maximum current at +60 mV. The normalised Kv3.x currents following addition of the compound were then compared with the currents recorded prior to compound addition (vehicle control). Positive modulation was determined as % potentiation at the voltage step of −10 mV=[current (cmpd)/current (veh)]*100−100. % potentiation≥50% was considered acceptable. In addition, voltage shift of the IV curve at V1/2 was measured. V1/2 of ≥−5 mV was also considered acceptable. IV curves were plotted in GraphPad Prism (software version 6.0) and fitted with a Boltzmann equation, where V1/2 is the voltage at half-maximal activation.

| SMILES | Kv3.1 Activity at 10 μM Potentiation (%) | Kv3.1 Activity at 10 μM Voltage Shift (mV) |
| --- | --- | --- |
| CCC1(CC)NC(=O)N(c2cc(Oc3ccc(C)c(OC)c3)ncn2)C1=O [Example 4, 3-[6-(3-methoxy-4-methyl-phenoxy)pyrimidin-4-yl]-5,5-diethyl-imidazolidine-2,4-dione] | 25 | −0.9 mV |
| COc1cc(Oc2cc(N3C(=O)NC4(CCC4)C3=O)ncn2)ccc1C [Example 5, 7-[6-(3-methoxy-4-methyl-phenoxy)pyrimidin-4-yl]-5,7-diazaspiro[3.4]octane-6,8-dione] | 35 | −3.2 mV |
| COc1cc(Oc2cc(N3C(=O)N[C@](C)(C(C)C)C3=O)ncn2)ccc1C [Example 8, (5R)-5-isopropyl-3-[6-(3-methoxy-4-methyl-phenoxy)pyrimidin-4-yl]-5-methyl-imidazolidine-2,4-dione] | 48 | −3.1 mV |
| COc1ccccc1Oc1cc(N2C(=O)NC(C)(C)C2=O)ncn1 [Example 9, 3-[6-(2-methoxyphenoxy)pyrimidin-4-yl]-5,5-dimethyl-imidazolidine-2,4-dione] | 22 | −2.2 mV |
| COc1cccc(Oc2cc(N3C(=O)NC(C)(C)C3=O)ncn2)c1 [Example 10, 3-[6-(3-methoxyphenoxy)pyrimidin-4-yl]-5,5-dimethyl-imidazolidine-2,4-dione] | 3 | +0.4 mV |
| COc1ccc(Oc2cc(N3C(=O)NC(C)(C)C3=O)ncn2)cc1 [Example 11, 3-[6-(4-methoxyphenoxy)pyrimidin-4-yl]-5,5-dimethyl-imidazolidine-2,4-dione] | 8 | −1.3 mV |
| COc1cc(C)cc(Oc2cc(N3C(=O)NC(C)(C)C3=O)ncn2)c1 [Example 17, 3-[6-(3-methyl-5-methoxy-phenoxy)pyrimidin-4-yl]-5,5-dimethyl-imidazolidine-2,4-dione] | 7 | −0.2 mV |
| COc1c(C)cccc1Oc1cc(N2C(=O)NC(C)(C)C2=O)ncn1 [Example 19, 3-[6-(2-methoxy-3-methyl-phenoxy)pyrimidin-4-yl]-5,5-dimethyl-imidazolidine-2,4-dione] | 15 | −1.7 mV |
| COc1cc(C)ccc1Oc1cc(N2C(=O)NC(C)(C)C2=O)ncn1 [Example 21, 3-[6-(2-methoxy-4-methyl-phenoxy)pyrimidin-4-yl]-5,5-dimethyl-imidazolidine-2,4-dione] | 29 | −1.4 mV |
| CC1(C)NC(=O)N(c2cc(Oc3cccnc3)ncn2)C1=O [Example 23, 5,5-dimethyl-3-[6-(3-pyridyloxy)pyrimidin-4-yl]imidazolidine-2,4-dione] | 28 | −0.9 mV |
| COc1cncc(Oc2cc(N3C(=O)NC(C)(C)C3=O)ncn2)c1 [Example 25, 5,5-dimethyl-3-[6-[(5-methoxy-3-pyridyl)oxy]pyrimidin-4-yl]imidazolidine-2,4-dione] | 6 | −0.1 mV |
| Cc1ccccc1Oc1cc(N2C(=O)NC(C)(C)C2=O)ncn1 [Example 26, 3-[6-(2-methylphenoxy)pyrimidin-4-yl]-5,5-dimethyl-imidazolidine-2,4-dione] | 17 | −2.2 mV |

The next lines start with the values.

| Kv3.1 Activity at 10 μM Potentiation (%) | Kv3.1 Activity at 10 μM Voltage Shift (mV) | SMILES |
| --- | --- | --- |
| 16 | −1.9 mV | CC[C@@]1(C)NC(=O)N(c2cc(Oc3ccc(C)c(OC)c3)ncn2)C1=O [Example 2, (5R)-5-ethyl-3-[6-(3-methoxy-4-methyl-phenoxy)pyrimidin-4-yl]-5-methyl-imidazolidine-2,4-dione] |
| 34 | −2.1 mV | CC[C@]1(C)NC(=O)N(c2cc(Oc3ccc(C)c(OC)c3)ncn2)C1=O [Example 3, (5S)-5-ethyl-3-[6-(3-methoxy-4-methyl-phenoxy)pyrimidin-4-yl]-5-methyl-imidazolidine-2,4-dione] |
| 13 | −0.3 mV | COc1ccc(Oc2cc(N3C(=O)NC(C)(C)C3=O)ncn2)cc1F [Example 12, 3-[6-(3-fluoro-4-methoxy-phenoxy)pyrimidin-4-yl]-5,5-dimethyl-imidazolidine-2,4-dione] |
| 53 | −2.7 mV | COc1ccc(C)c(Oc2cc(N3C(=O)NC(C)(C)C3=O)ncn2)c1 [Example 18, 3-[6-(2-methyl-5-methoxy-phenoxy)pyrimidin-4-yl]-5,5-dimethyl-imidazolidine-2,4-dione] |
| 37 | −3.3 mV | COc1ccc(Oc2cc(N3C(=O)NC(C)(C)C3=O)ncn2)cc1C [Example 20, 3-[6-(3-methyl-4-methoxy-phenoxy)pyrimidin-4-yl]-5,5-dimethyl-imidazolidine-2,4-dione] |
| 31 | −2.3 mV | Cc1ccc(Oc2cc(N3C(=O)NC(C)(C)C3=O)ncn2)cc1C#N [Example 22, 5-[6-(4,4-dimethyl-2,5-dioxo-imidazolidin-1-yl)pyrimidin-4-yl]oxy-2-methyl-benzonitrile] |
| 33 | −4.0 mV | Cc1ccc(Oc2cc(N3C(=O)NC(C)(C)C3=O)ncn2)cn1 [Example 24, 5,5-dimethyl-3-[6-[(6-methyl-3-pyridyl)oxy]pyrimidin-4-yl]imidazolidine-2,4-dione] |
| −17 | +2.11 mV | Cc1cccc(Oc2cc(N3C(=O)NC(C)(C)C3=O)ncn2)c1 [Example 27, 3-[6-(3-methylphenoxy)pyrimidin-4-yl]-5,5-dimethyl-imidazolidine-2,4-dione] |
| 3 | −1.1 mV | Cc1ccc(Oc2cc(N3C(=O)NC(C)(C)C3=O)ncn2)cc1 [Example 28, 3-[6-(4-methylphenoxy)pyrimidin-4-yl]-5,5-dimethyl-imidazolidine-2,4-dione] |
| 10 | −1.6 mV | Cc1ccc(Oc2cc(N3C(=O)NC(C)(C)C3=O)ncn2)cc1C [Example 29, 3-[6-(3,4-dimethylphenoxy)pyrimidin-4-yl]-5,5-dimethyl-imidazolidine-2,4-dione] |
| 63 | −2.1 mV | CCc1cc(Oc2cc(N3C(=O)NC(C)(C)C3=O)ncn2)ccc1C [Example 30, 3-[6-(3-ethyl-4-methylphenoxy)pyrimidin-4-yl]-5,5-dimethyl-imidazolidine-2,4-dione] |
| 65 | −3.3 mV | CC1(C)NC(=O)N(c2cc(Oc3ccc4c(c3)CCC4)ncn2)C1=O [Example 31, 3-(6-indan-5-yloxypyrimidin-4-yl)-5,5-dimethyl-imidazolidine-2,4-dione] |
